Measurements reported in patent publication US20230210813A1, “METHODS AND PHARMACEUTICAL COMPOSITIONS FOR THE TREATMENT OF CHRONIC KIDNEY DISEASE” (INSERM (INSTITUTE NATIONAL DE LA SANTÉ ET DE LA RECHERCHE …, priority 2020, published 2023).

Key:
Ins2Akita mice (DKD) [1] = test: DMAPT versus ramipril treatment of diabetic Ins2Akita mice (second series, FIG. 1); assay type: in vivo, mouse; conditions: for urinary albumin/creatinine ratio (ACR): 10 mg/kg/d for 2 months from 2 months of age, vs untreated DKD, FIG. 1A; for glomerular injury (PAS staining) / glomerular area / fibrosis (Masson trichrome staining) / glycemia / body weight: 10 mg/kg/d for 2 months; for glomerular injury (PAS staining): FIG. 1B; for glomerular area: FIG. 1C; for fibrosis (Masson trichrome staining): FIG. 1D; for glycemia: FIG. 1E; for body weight: FIG. 1F
Experimental: (§1) Male C57BL/6-Ins2Akita/J (Ins2Akita) and C57BL/6J (WT) mice (Charles River) were housed with unrestricted access to water and were maintained on a 12-h light-dark cycle in a pathogen-free environment on standard mouse chow. All experiments were conducted in accordance with the Guide for the care and use of laboratory animals of the National Institute of Health, eighth edition and the French Institute of Health guidelines for the care and use of laboratory animals. The project was approved by the local (Inserm/UPS US006 CREFRE) and national ethics committees (ethics committee for animal experiment, CEEA122; Toulouse, France; approval 02867.01).
(§2) In a first series of experiments, 2 months old mice were treated with or without ACEi ramipril (10 mg/kg/d in drinking water) for 2 months. In a second series of experiments 2 months old mice were treated with or without ACEi ramipril as in the first series or with dimethylaminoparthenolide monofumarate (DMAPT, 10 mg/kg/d by gavage) for 2 months. In each series of experiments, urine was collected in metabolic cages for 12 h, few days before sacrifice.
Right kidney cortexes were fixed in Carnoy's solution for 24 h, dehydrated in successive baths with increasing alcohol concentrations, embedded in paraffin and 2 μm sections were cut and mounted, and stained with either periodic acid-Schiff (PAS) or Masson trichrome. Stained sections were scanned using a Nanozoomer 2.0 RS (Hamamatsu Photonics SARL) and treated with the Morpho-expert image-analysis software (version 1.00, Explora Nova) for renal corpuscle surface quantification. At least 50 glomeruli including superficial and […] cortical area, were examined for each animal. The extent of glomerular injury was expressed as the percentage of glomerular area fraction occupied by PAS positive matrix^3.
(§3) Urinary albumin concentration was measured by ELISA using the AlbuWell kit (WAK-Chemie Medical GmbH, Steinbach, Germany). Urinary creatinine concentration was measured by the colorimetric method of Jaffe according to the protocol Creatinine Assay Kit (Bio Assay Systems). Blood glucose levels were measured in caudal blood from fasted awake mice using a glucometer (Glucometer Elite XL; Bayer Healthcare, Elkhart, Ind.).
(§4) Comparison between 2 groups of values was implemented using a two-tailed unpaired Welch's t-tests. Comparison between more than 2 groups, was implemented using an ordinary one-way ANOVA followed by Homl-Sidak's multiple comparisons test was used. P<0.05 was considered statistically significant. For the proteomic data the P values were adjusted for the false discovery rate (Benjamini-Hochberg).

[2] = cited from earlier work
[3] = fumarate salt; cited from earlier work
[4] = tested on: histone deacetylase (HDAC); conditions: independent of NF kappa B; cited from earlier work
patients with cancer = conditions: Phase I, standardized doses; cited from earlier work
[5] = tested on: immune glomerulonephritis in rat; conditions: cited from earlier work
[6] = tested on: type 2 diabetic db/db mice; conditions: cited from earlier work
[7] = tested on: NF kappa B transcription factor complex; conditions: cited from earlier work
Ins2Akita mice (DKD) [8] = test: Ramipril treatment of diabetic Ins2Akita mice (first series); assay type: in vivo, mouse
Experimental: as §1, §2, §3, §4

[9] = ramipril 10 mg/kg/d in drinking water for 2 months

| SMILES | urinary albumin/creatinine ratio (ACR) (Ins2Akita mice (DKD) [1]) | glomerular injury (PAS staining) (Ins2Akita mice (DKD) [1]) | glomerular area (Ins2Akita mice (DKD) [1]) | fibrosis (Masson trichrome staining) (Ins2Akita mice (DKD) [1]) | glycemia (Ins2Akita mice (DKD) [1]) | body weight (Ins2Akita mice (DKD) [1]) | water-solubility [2] | oral bioavailability [3] | HDAC activity [4] | tolerability / dose-limiting toxicity (patients with cancer) | proteinuria and renal injury [5] | renal inflammation and insulin resistance [6] | activity of the NF kappa B transcription factor complex [7] | body weight (Ins2Akita mice (DKD) [8]; [9]) | glycemia (Ins2Akita mice (DKD) [8]; [9]) | ACR (Ins2Akita mice (DKD) [8]; ramipril 10 mg/kg/d in drinking water from 2 months of age for 2 months) |
| --- | --- | --- | --- | --- | --- | --- | --- | --- | --- | --- | --- | --- | --- | --- | --- | --- |
| C/C1=C/CC[C@@]2(C)O[C@@H]2[C@H]2OC(=O)[C@H](CN(C)C)[C@@H]2CC1 [DMAPT, (4E,8S)-8-[(dimethylamino)methyl]-2,3,6,7,7aS,8,10aS,10bR-octahydro-1aR,5-dimethyl-oxireno[9,10]cyclodeca[1,2-b]furan-9(1aH)-one] | significant reduction | significantly reduced | tended to reduce glomerular area without reaching significance | significantly reduced | Neither glycemia (FIG. 1E) nor body weight (FIG. 1F) were significantly influenced | Neither glycemia (FIG. 1E) nor body weight (FIG. 1F) were significantly influenced | water-soluble | orally bioavailable | inhibit histone deacetylase (HDAC) activity | – | – | – | – | – | – | – |
| C=C1C(=O)O[C@@H]2[C@H]3O[C@]3(C)CC/C=C(\C)CC[C@@H]12 [parthenolide, (1aR,4E,7aS,10aS,10bR)-2,3,6,7,7a,8,10a,10b-octahydro-1a,5-dimethyl-8-methylene-oxireno[9,10]cyclodeca[1,2-b]furan-9(1aH)-one] | – | – | – | – | – | – | poor water-solubility | – | – | well tolerated without dose-limiting toxicity | beneficial impact | able to alleviate renal inflammation and insulin resistance | inhibiting the activity | – | – | – |
| CCOC(=O)[C@H](CCc1ccccc1)N[C@@H](C)C(=O)N1[C@H](C(=O)O)C[C@@H]2CCC[C@@H]21 [ramipril] | significant reduction | no significant influence | no significant influence | no significant influence | Neither glycemia (FIG. 1E) nor body weight (FIG. 1F) were significantly influenced | Neither glycemia (FIG. 1E) nor body weight (FIG. 1F) were significantly influenced | – | – | – | – | – | – | – | no influence | slightly but significantly reduced | significantly reduced |
